We go through 21 compounds from ChEMBL document CHEMBL4602617, “Discovery and optimization of heteroaryl piperazines as potent and selective PI3Kδ inhibitors” (Bioorg Med Chem Lett, 2020).

SMILES strings stand for the structures.

Series [1] is described as follows: Clearance in rat liver microsomes. The class given is ADME, Microsome. Particulars: read-out: CLH. On the technique in general: Microsomes from liver hold many membrane-bound enzymes, among them those of drug oxidation.
Series [2] deals with PI3-kinase p110-delta/p85-alpha (Homo sapiens, UniProt O00329). Nature of the series: Inhibition of recombinant human full-length N-terminal GST-tagged p110delta/untagged full-length p85alpha expressed in baculovirus infected Sf21 cells using PIP2 as substrate preincubated for 15 mins followed by substrate addition and measured after 1 hr by HTRF assay. In general terms: In TR-FRET formats the signal depends on donor and acceptor labels being close together.
PI3-kinase p110-delta/p85-alpha, sequence (P27986 whole entry, one chain of several): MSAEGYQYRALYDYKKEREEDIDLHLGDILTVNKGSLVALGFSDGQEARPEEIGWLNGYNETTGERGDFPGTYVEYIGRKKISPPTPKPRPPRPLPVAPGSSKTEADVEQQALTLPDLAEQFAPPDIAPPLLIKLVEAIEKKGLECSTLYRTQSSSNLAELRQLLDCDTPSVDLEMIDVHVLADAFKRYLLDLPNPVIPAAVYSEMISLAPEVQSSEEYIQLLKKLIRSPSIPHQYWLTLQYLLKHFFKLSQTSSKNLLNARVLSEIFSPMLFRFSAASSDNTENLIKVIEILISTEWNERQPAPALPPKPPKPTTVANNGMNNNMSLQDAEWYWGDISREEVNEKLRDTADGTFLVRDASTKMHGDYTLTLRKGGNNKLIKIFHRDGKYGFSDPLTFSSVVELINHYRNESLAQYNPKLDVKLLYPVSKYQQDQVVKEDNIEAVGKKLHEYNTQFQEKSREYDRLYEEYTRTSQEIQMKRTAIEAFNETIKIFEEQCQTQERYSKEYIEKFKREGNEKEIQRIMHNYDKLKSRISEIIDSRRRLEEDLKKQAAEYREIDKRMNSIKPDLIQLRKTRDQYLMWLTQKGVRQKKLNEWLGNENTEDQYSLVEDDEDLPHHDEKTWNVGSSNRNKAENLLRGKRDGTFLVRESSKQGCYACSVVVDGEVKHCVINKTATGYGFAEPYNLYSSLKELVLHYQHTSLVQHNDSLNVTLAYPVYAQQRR

Series [3] in a line: Distribution coefficient, logD of compound by HPLC analysis. Particulars: octanol/water. The format is physicochemical.
Series [4] is filed under the species Homo sapiens. Kind of series: Selectivity index, ratio IC50 for inhibition of recombinant human N-terminal His6-tagged full-length p120gamma expressed in Sf21 insect cells to ratio IC50 for inhibition of recombinant human full-length N-terminal GST-tagged p110delta/untagged full-length p85alpha expressed in baculovirus infected Sf21 cells.
Series [5] is described as follows: Clearance in human liver microsomes. The class given is ADME, Microsome. Particulars: read-out: CLH.
The species entered for series [6] is Homo sapiens. Kind of series: Selectivity index, ratio IC50 for inhibition of recombinant human full-length N-terminal His6-tagged p110alpha/untagged full-length p85alpha expressed in baculovirus infected Sf21 cells to ratio IC50 for inhibition of recombinant human full-length N-terminal GST-tagged p110delta/untagged full-length p85alpha expressed in baculovirus infected Sf21 cells.

For series [7], the species on record is Homo sapiens. Kind of series: Selectivity index, ratio IC50 for inhibition of recombinant human full-length N-terminal His6-tagged p110beta/untagged full-length p85alpha expressed in baculovirus infected Sf21 cells to ratio IC50 for inhibition of recombinant human full-length N-terminal GST-tagged p110delta/untagged full-length p85alpha expressed in baculovirus infected Sf21 cells.

Series [8] has as its target T1, Phosphatidylinositol 4,5-bisphosphate 3-kinase catalytic subunit delta isoform (Homo sapiens, UniProt O00329).
T1 sequence (O00329 whole entry): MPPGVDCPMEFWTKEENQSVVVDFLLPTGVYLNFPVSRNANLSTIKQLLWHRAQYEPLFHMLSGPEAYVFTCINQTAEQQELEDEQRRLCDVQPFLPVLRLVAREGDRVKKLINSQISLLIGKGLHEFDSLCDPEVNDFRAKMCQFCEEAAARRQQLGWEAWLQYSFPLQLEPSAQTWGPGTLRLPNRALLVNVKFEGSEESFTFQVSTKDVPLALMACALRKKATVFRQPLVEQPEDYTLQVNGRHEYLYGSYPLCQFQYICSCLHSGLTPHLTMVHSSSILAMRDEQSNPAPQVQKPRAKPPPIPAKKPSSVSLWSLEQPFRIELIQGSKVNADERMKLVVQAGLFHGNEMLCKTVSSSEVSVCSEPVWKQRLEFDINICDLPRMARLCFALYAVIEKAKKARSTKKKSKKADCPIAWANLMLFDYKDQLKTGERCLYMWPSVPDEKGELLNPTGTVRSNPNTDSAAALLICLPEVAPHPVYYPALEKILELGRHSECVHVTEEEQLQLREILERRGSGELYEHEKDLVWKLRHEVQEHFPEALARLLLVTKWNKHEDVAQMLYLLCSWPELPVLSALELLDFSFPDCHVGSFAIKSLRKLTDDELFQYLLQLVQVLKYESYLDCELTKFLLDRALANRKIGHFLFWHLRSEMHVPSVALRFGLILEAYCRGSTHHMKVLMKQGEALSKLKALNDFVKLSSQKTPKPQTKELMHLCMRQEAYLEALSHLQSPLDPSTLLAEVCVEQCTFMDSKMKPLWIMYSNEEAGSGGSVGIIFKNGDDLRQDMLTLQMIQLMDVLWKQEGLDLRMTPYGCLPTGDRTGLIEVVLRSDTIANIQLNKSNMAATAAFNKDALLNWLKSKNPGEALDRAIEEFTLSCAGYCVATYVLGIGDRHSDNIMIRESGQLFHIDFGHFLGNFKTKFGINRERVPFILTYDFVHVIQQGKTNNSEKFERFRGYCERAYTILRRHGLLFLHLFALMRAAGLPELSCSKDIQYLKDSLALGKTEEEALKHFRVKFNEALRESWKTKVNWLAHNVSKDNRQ
Nature of the series: Inhibition of PI3K delta in human whole blood assessed as inhibition of anti-IgE-stimulated CysLt release in basophils preincubated for 30 mins followed by anti-IgE stimulation and measured after 20 mins. The class given is tissue-based.

One may read the IC50 as the concentration at which inhibition is half-maximal. Broadly, the logD is the decadic logarithm of the distribution of all forms, ionised or not, between an organic phase and buffer at a given pH. A low value points to a more hydrophilic compound. Consider `C[C@@H]1C[C@H]1C(=O)N1CCN(c2nc(-c3cnn(C)c3)ncc2C#N)C[C@H]1C`, for which the CLint scaled in series [1] was 54 mL/min/kg; in series [5], less than 16 mL/min/kg. Moreover, the IC50 stood at 32 nM in series [2] and 187 nM in series [8]. In series [3], this compound registered a logD of 1.9. Also, the Ratio IC50 in the series listed under Homo sapiens [4], in the series filed under Homo sapiens [6] and in the series filed under Homo sapiens [7] was more than 394 in each case.

Take `C[C@@H]1CN(c2nc(-c3cnn(C)c3)ncc2C#N)CCN1C(=O)C1CC1`: the CLint scaled in series [1] was less than 36 mL/min/kg; in series [5] it was 21 mL/min/kg. The values for the IC50 in series [2] and in series [8] were 108 nM and 329 nM, respectively. In series [3], this compound gave a log distribution coefficient (logD) of 1.5. Further, the Ratio IC50 in the series filed under Homo sapiens [4], in the series filed under Homo sapiens [6] and in the series filed under Homo sapiens [7] was more than 116 throughout.

Take `Cn1cc(-c2ncc(C#N)c(N3CCN(c4cccc(F)c4)C(C)(C)C3)n2)cn1`: the values for the CLint scaled in series [1] and in series [5] were 2050 mL/min/kg and 91 mL/min/kg, respectively. In addition, the IC50 in series [2] came out at 1520 nM. The logD in series [3] was 3.6. In addition, the Ratio IC50 in the series filed under Homo sapiens [4], in the series listed under Homo sapiens [6] and in the series listed under Homo sapiens [7] was more than 8 in each case.

As to `N#Cc1cnc(-c2ccccc2)nc1N1C[C@@H]2C[C@H]1CN2c1cccc(F)c1`, in series [2], the IC50 is more than 10000 nM. The pH-dependent lipophilicity (logD) in series [3] was found to be 4.5.

As for `C[C@@H]1CN(c2cnc(C#N)c(-c3cnn(C)c3)n2)CCN1C(=O)C1CC1`, the CLint scaled in series [1] was less than 36 mL/min/kg; in series [5], less than 16 mL/min/kg. Besides, the IC50 in series [2] was 33 nM; in series [8] it was 219 nM. The compound further yielded a logD in series [3] of 1.8. In addition, the Ratio IC50 in the series filed under Homo sapiens [4], in the series filed under Homo sapiens [6] and in the series filed under Homo sapiens [7] was more than 384 in each case.

With `CCC(=O)N1CCN(c2nc(-c3cnn(C)c3)ncc2C#N)C[C@H]1C`, the CLint scaled in series [1] was less than 36 mL/min/kg; in series [5] it was less than 16 mL/min/kg. Further, the IC50 is 263 nM in series [2] and 2320 nM in series [8]. In addition, the logD in series [3] came out at 1.4. The Ratio IC50 in the series filed under Homo sapiens [4], in the series listed under Homo sapiens [6] and in the series filed under Homo sapiens [7] was more than 48 in each case.

Consider `CC1CC1C(=O)N1CCN(c2nc(-c3cnn(C)c3)ncc2C#N)C[C@H]1C` (mixture of isomers), for which the CLint scaled was less than 36 mL/min/kg in series [1] and less than 16 mL/min/kg in series [5]. Moreover, the IC50 was found to be 79 nM in series [2] and 557 nM in series [8]. Moreover, the logD in series [3] was determined as 2. Besides, the Ratio IC50 was 159 in the series listed under Homo sapiens [4], more than 159 in the series listed under Homo sapiens [6] and more than 159 in the series listed under Homo sapiens [7].

Consider `Cn1cc(-c2ncc(C#N)c(N3CCN(c4cccc(F)c4)CC3)n2)cn1`, for which the 50% inhibitory concentration (IC50) in series [2] was 1600 nM. The logD in series [3] was 3.2. The Ratio IC50 in the series listed under Homo sapiens [4], in the series listed under Homo sapiens [6] and in the series listed under Homo sapiens [7] was more than 8 in each case.

As to `N#Cc1cnc(N2Cc3cn[nH]c3C2)nc1N1C[C@@H]2C[C@H]1CN2c1cccc(F)c1`, in series [2], the concentration for half-maximal inhibition (IC50) came out at 86 nM. The compound also returned a pH-dependent lipophilicity (logD) in series [3] of 2.9. For the same compound, the Ratio IC50 in the series listed under Homo sapiens [4], in the series filed under Homo sapiens [6] and in the series listed under Homo sapiens [7] was more than 146 throughout.

Take `CCNC(=O)N1C[C@@H]2C[C@H]1CN2c1nc(-c2cnn(C)c2)ncc1C#N`: the half-maximal inhibitory concentration (IC50) in series [2] stood at 2190 nM. In series [3], this compound gave a logD of 0.8. Moreover, the values for the Ratio IC50 in the series listed under Homo sapiens [4], in the series filed under Homo sapiens [6] and in the series listed under Homo sapiens [7] were 6, more than 6 and 6, respectively.

For the compound `C[C@@H]1CN(c2nc(-c3cnn(C)c3)ncc2C#N)CCN1C(=O)C1CCC1`, the CLint scaled was less than 36 mL/min/kg in series [1] and less than 16 mL/min/kg in series [5]. Besides, the IC50 turned out to be 374 nM in series [2] and 1560 nM in series [8]. The compound also showed a logD in series [3] of 2. Besides, the Ratio IC50 in the series filed under Homo sapiens [4], in the series filed under Homo sapiens [6] and in the series listed under Homo sapiens [7] was more than 33 in each case.

Take `C[C@@H]1CN(c2nc(-c3cnn(C)c3)ncc2C#N)CCN1C(=O)C1(C)CC1`: the values for the CLint scaled in series [1] and in series [5] were less than 36 mL/min/kg and less than 16 mL/min/kg, respectively. Also, the results for the IC50 in series [2] and in series [8] were 1050 nM and 5710 nM, respectively. The compound also yielded a logD in series [3] of 1.7. For the same compound, the Ratio IC50 in the series listed under Homo sapiens [4], in the series listed under Homo sapiens [6] and in the series filed under Homo sapiens [7] was more than 12 throughout.

For `C[C@@H]1CN(c2nc(-c3cnn(C)c3)cnc2C#N)CCN1C(=O)C1CC1`, the CLint scaled in series [1] was 39 mL/min/kg; in series [5], 50 mL/min/kg. The IC50 was determined as 185 nM in series [2] and 737 nM in series [8]. Also, the logD in series [3] amounted to 1.9. Besides, the Ratio IC50 in the series filed under Homo sapiens [4], in the series listed under Homo sapiens [6] and in the series listed under Homo sapiens [7] was more than 67 in each case.

Take `Cn1cc(-c2ncc(C#N)c(N3C[C@@H]4C[C@H]3CN4CC3CC3)n2)cn1`: the figures for the CLint scaled in series [1] and in series [5] were 158 mL/min/kg and less than 16 mL/min/kg, respectively. In addition, the results for the IC50 in series [2] and in series [8] were 1430 nM and 6970 nM, respectively. The same compound yielded a logD in series [3] of 1.5.

On to `C[C@@H]1CN(c2ncc(C#N)c(-c3cnn(C)c3)n2)CCN1C(=O)C1CC1`, for which the CLint scaled in series [1] was 39 mL/min/kg; in series [5] it was less than 16 mL/min/kg. Moreover, the IC50 came out at 21 nM in series [2] and 764 nM in series [8]. The same compound displayed a logD in series [3] of 2. Besides, the Ratio IC50 was 764 in the series listed under Homo sapiens [4], more than 583 in the series listed under Homo sapiens [6] and more than 583 in the series filed under Homo sapiens [7].

Regarding `C[C@@H]1CN(c2nc(-c3cnn(C)c3)ncc2C#N)CCN1c1cccc(F)c1`, the concentration for half-maximal inhibition (IC50) in series [2] came out at 165 nM. Also, the logD in series [3] is 3.3. For the same compound, the Ratio IC50 in the series filed under Homo sapiens [4], in the series listed under Homo sapiens [6] and in the series listed under Homo sapiens [7] was more than 76 each time.

With `Cn1cc(-c2ncc(C#N)c(N3CC4CCC(C3)N4c3cccc(F)c3)n2)cn1`, the results for the CLint scaled in series [1] and in series [5] were 529 mL/min/kg and 62 mL/min/kg, respectively. Besides, in series [2], the half-inhibitory concentration (IC50) was 1030 nM. Moreover, the logD in series [3] was found to be 3.3. The Ratio IC50 in the series filed under Homo sapiens [4], in the series filed under Homo sapiens [6] and in the series filed under Homo sapiens [7] was more than 12 throughout.

As to `N#Cc1cnc(-c2ccnc3[nH]ccc23)nc1N1C[C@@H]2C[C@H]1CN2c1cccc(F)c1`, the concentration for half-maximal inhibition (IC50) in series [2] is 56 nM. Also, the logD in series [3] stood at 3.4. Besides, the Ratio IC50 in the series filed under Homo sapiens [4] amounted to 225; in the series filed under Homo sapiens [6], 76; in the series listed under Homo sapiens [7], 93.

As for `N#Cc1cnc(-c2cnc3[nH]ccc3c2)nc1N1C[C@@H]2C[C@H]1CN2c1cccc(F)c1`, in series [2], the IC50 was 918 nM. Moreover, the values for the Ratio IC50 in the series listed under Homo sapiens [4], in the series filed under Homo sapiens [6] and in the series filed under Homo sapiens [7] were more than 14, 8 and more than 14, respectively.

For `Cn1cc(-c2ncc(C#N)c(N3C[C@@H]4C[C@H]3CN4S(=O)(=O)C3CC3)n2)cn1`, the values for the CLint scaled in series [1] and in series [5] were less than 36 mL/min/kg and less than 16 mL/min/kg, respectively. In addition, the concentration for half-maximal inhibition (IC50) in series [2] was determined as 1190 nM; in series [8], 4120 nM. The logD in series [3] was determined as 1.6. The Ratio IC50 in the series listed under Homo sapiens [4] was 10; in the series listed under Homo sapiens [6], more than 10; in the series listed under Homo sapiens [7], 10.

Take `N#Cc1cnc(-c2cccnc2)nc1N1C[C@@H]2C[C@H]1CN2c1cccc(Cl)c1`: in series [2], the IC50 came out at 474 nM. The logD in series [3] is 3.82. In addition, the Ratio IC50 in the series filed under Homo sapiens [4] was more than 105; in the series filed under Homo sapiens [6], 62; in the series listed under Homo sapiens [7], 14.
